Results taken from US20050208496A1, “Methods of testing for bronchial asthma or chronic obstructive pulmonary disease” (Genox Research, Inc., priority 2002, published 2005).

Test system: respiratory epithelial cells

IL-13: human IL-13 (Peprotech, Inc.) added to the medium at 50 ng/mL to stimulate respiratory epithelial cells
KCNMA1 (47575_g_at) expression change (lot 2, Day 3, AI): −3.5
KCNMA1 (53796_at) expression change (lot 2, Day 3, AI): −4.8
KIAA0878 (48793_at) expression change (lot 2, Day 3, AI): −2.1
KLF7 34216_at expression change (lot 2, Day 3, AI): −2.6
KLF7 (42769_at) expression change (lot 2, Day 3, AI): −5.7
KRT15 37582_at expression change (lot 2, Day 3, AI): −2.7
LOC51297 (49616_at) expression change (lot 2, Day 3, AI): −13.4
LOC51297 (55440_at) expression change (lot 2, Day 3, AI): −10.8
LOC51297 (55442_g_at) expression change (lot 2, Day 3, AI): −14.4
LOC129642 (42065_at) expression change (lot 2, Day 3, AI): −2.8
LOC129642 (58288_at) expression change (lot 2, Day 3, AI): −3
MGC12536 46924_at expression change (lot 2, Day 3, AI): −4.2
MGC13102 (54791_at) expression change (lot 2, Day 3, AI): −2.1
MGC14128 55924_at expression change (lot 2, Day 3, AI): −3.3
MGC14128 (51669_r_at) expression change (lot 2, Day 3, AI): −3
MGC14597 (46030_at) expression change (lot 2, Day 3, AI): −8.5
N52554 47432_at expression change (lot 2, Day 3, AI): −2.3
N71183 52473_at expression change (lot 2, Day 3, AI): −2.2
PR01489 57777_at expression change (lot 2, Day 3, AI): −3.3
PSCA (63958_at) expression change (lot 2, Day 3, AI): −5.5
RAC2 32737_at expression change (lot 2, Day 3, AI): −17.4
RGC32 (57044_s_at) expression change (lot 2, Day 3, AI): −2.2
SCNN1B 39682_at expression change (lot 2, Day 3, AI): −12.3
SCYB14 (65823_at) expression change (lot 2, Day 3, AI): −2.1
SERPINA3 (75248_at) expression change (lot 2, Day 3, AI): −35.8
SLC11A3 (45826_at) expression change (lot 2, Day 3, AI): −2.5
SLC34A2 (48048_at) expression change (lot 2, Day 3, AI): −4.3
SPON2 52576_s_at expression change (lot 2, Day 3, AI): −3.1
STEAP 40297_at expression change (lot 2, Day 3, AI): −2.6
TCF8 33439_at expression change (lot 2, Day 3, AI): −2.7
TGFBI (68339_at) expression change (lot 2, Day 3, AI): −2.8
TNFAIP2 (74633_at) expression change (lot 2, Day 3, AI): −2.2
TNRC3 41246_at expression change (lot 2, Day 3, AI): −2
TPM1 36790_at expression change (lot 2, Day 3, AI): −5.4
TPM1 36791_g_at expression change (lot 2, Day 3, AI): −3.5
TPM1 36792_at expression change (lot 2, Day 3, AI): −5
UCP2 37591_at expression change (lot 2, Day 3, AI): −2.3
UGB 39220_at expression change (lot 2, Day 3, AI): −17.8
VEGFC 1934_s_at expression change (lot 2, Day 3, AI): −2.5
VIM 34091_s_at expression change (lot 2, Day 3, AI): −3.1
W72331 49486 at expression change (lot 2, Day 3, AI): −7.8
AA149682 (51925_at) expression fold change (lot 2, Day 3, AI method): 2.2 fold
AA167714 (54897_at) expression fold change (lot 2, Day 3, AI method): 2.9 fold
AA420479 (52539_at) expression fold change (lot 2, Day 3, AI method): 2.2 fold
AA541787 (52622_at) expression fold change (lot 2, Day 3, AI method): 2.2 fold
AA582926 (52307_at) expression fold change (lot 2, Day 3, AI method): 2.2 fold
AA604375 (44127_at) expression fold change (lot 2, Day 3, AI method): 2.1 fold
ADAM8 (40712_at) expression, fold change upon IL-13 stimulation (lot 2, Day 3, AI method): 2.7 fold
ADAM28 (35479_at) expression, fold change upon IL-13 stimulation (lot 2, Day 3, AI method): 3.5 fold
AI310524 (47087_at) expression fold change (lot 2, Day 3, AI method): 2 fold
AI565105 (54886_at) expression fold change (lot 2, Day 3, AI method): 2.2 fold
AI659927 (54033_at) expression fold change (lot 2, Day 3, AI method): 4.6 fold
AI718385 (53061_at) expression fold change (lot 2, Day 3, AI method): 2.2 fold
AI809925 (53010_at) expression fold change (lot 2, Day 3, AI method): 2.2 fold
AI989346 (52327_s_at) expression fold change (lot 2, Day 3, AI method): 2.2 fold
AKAP2 (35985_at) expression, fold change upon IL-13 stimulation (lot 2, Day 3, AI method): 2.5 fold
AKAP2 (48035_at) expression fold change (lot 2, Day 3, AI method): 3 fold
ALOX15 (34636_at) expression, fold change upon IL-13 stimulation (lot 2, Day 3, AI method): 112.2 fold
ARL7 (57151_at) expression fold change (lot 2, Day 3, AI method): 6.1 fold
AW019985 (48826_s_at) expression fold change (lot 2, Day 3, AI method): 9.8 fold
BAL (52167_at) expression fold change (lot 2, Day 3, AI method): 2.7 fold
BRCA1 (626_s_at) expression fold change (lot 2, Day 3, AI method): 19.3 fold
BST2 (39061_at) expression, fold change upon IL-13 stimulation (lot 2, Day 3, AI method): 5.8 fold
C21orf11 (58957_at) expression fold change (lot 2, Day 3, AI method): 7.1 fold
CCND3 (1794_at) expression fold change upon IL-13 stimulation (lot 2, Day 3, AI method): 2.3 fold
CCND3 (1795_g_at) expression fold change upon IL-13 stimulation (lot 2, Day 3, AI method): 2.4 fold
CD47 (37890_at) expression fold change (lot 2, Day 3, AI method): 2.4 fold
CDH6 (1620_at) expression fold change upon IL-13 stimulation (lot 2, Day 3, AI method): 5.6 fold
CDH6 (57421_at) expression fold change (lot 2, Day 3, AI method): 2.9 fold
CDH26 (46916_at) expression fold change (lot 2, Day 3, AI method): 10.5 fold
CH25H (32363_at) expression, fold change upon IL-13 stimulation (lot 2, Day 3, AI method): 14.9 fold
CLDN1 (46260_at) expression fold change (lot 2, Day 3, AI method): 2.4 fold
CLDN4 (35276_at) expression, fold change upon IL-13 stimulation (lot 2, Day 3, AI method): 2.2 fold
CTSC (133_at) expression, fold change upon IL-13 stimulation (lot 2, Day 3, AI method): 3.9 fold
CXCL16 (44095_at) expression fold change (lot 2, Day 3, AI method): 2.3 fold
DBCCR1 (40292_at) expression, fold change upon IL-13 stimulation (lot 2, Day 3, AI method): 7.9 fold
DD96 (31610_at) expression, fold change upon IL-13 stimulation (lot 2, Day 3, AI method): 5.3 fold
DKFZP564O0823 (41402_at) expression, fold change upon IL-13 stimulation (lot 2, Day 3, AI method): 5.4 fold
DKFZP566J091 (57197_at) expression fold change (lot 2, Day 3, AI method): 45.3 fold
DKFZp564N1116 (37784_at) expression, fold change upon IL-13 stimulation (lot 2, Day 3, AI method): 5 fold
DNAJA1 (276_at) expression fold change upon IL-13 stimulation (lot 2, Day 3, AI method): 2.2 fold
DPP4 (34823_at) expression fold change upon IL-13 stimulation (lot 2, Day 3, AI method): 7.6 fold
DPYD (38220_at) expression fold change upon IL-13 stimulation (lot 2, Day 3, AI method): 3.9 fold
EMILIN-2 (51628_at) expression fold change (lot 2, Day 3, AI method): 2.9 fold
FABP4 (38430_at) expression, fold change upon IL-13 stimulation (lot 2, Day 3, AI method): 2.5 fold
FBP1 (36495_at) expression fold change upon IL-13 stimulation (lot 2, Day 3, AI method): 4.4 fold
FETUB (32620_at) expression fold change (lot 2, Day 3, AI method): 37.6 fold
FETUB (33101_g_at) expression fold change (lot 2, Day 3, AI method): 24.7 fold
FLJ10261 (43366_at) expression fold change (lot 2, Day 3, AI method): 11.2 fold
FLJ10261 (43963_at) expression fold change (lot 2, Day 3, AI method): 14.4 fold
FLJ22693 (53777_at) expression fold change (lot 2, Day 3, AI method): 2.2 fold
FUT10 (908_at) expression fold change upon IL-13 stimulation (lot 2, Day 3, AI method): 8.9 fold
GADD45G (39154_at) expression fold change upon IL-13 stimulation (lot 2, Day 3, AI method): 5.3 fold
GBP5 (52615_at) expression fold change (lot 2, Day 3, AI method): 4.5 fold
GS3686 (36927_at) expression, fold change upon IL-13 stimulation (lot 2, Day 3, AI method): 6.4 fold
HAS3 (54604_at) expression fold change (lot 2, Day 3, AI method): 2 fold
HDAC9 (37483_at) expression fold change upon IL-13 stimulation (lot 2, Day 3, AI method): 3.7 fold
HS3ST1 (41556_s_at) expression fold change upon IL-13 stimulation (lot 2, Day 3, AI method): 5.8 fold
HSPA5 (47634_at) expression fold change (lot 2, Day 3, AI method): 3.7 fold
ICAMt (32640_at) expression fold change upon IL-13 stimulation (lot 2, Day 3, AI method): 2.8 fold
IFI27 (425_at) expression, fold change upon IL-13 stimulation (lot 2, Day 3, AI method): 2.5 fold
IFI27 (48864_at) expression fold change (lot 2, Day 3, AI method): 2.1 fold
IFI35 (464_s_at) expression, fold change upon IL-13 stimulation (lot 2, Day 3, AI method): 4.5 fold
IFI44 (37641_at) expression, fold change upon IL-13 stimulation (lot 2, Day 3, AI method): 3.8 fold
IFIT1 (915_at) expression, fold change upon IL-13 stimulation (lot 2, Day 3, AI method): 9 fold
IFIT1 (32814_at) expression, fold change upon IL-13 stimulation (lot 2, Day 3, AI method): 4 fold
